Data published in patent publication US5440016A, “Peptides of the formula (KFmoc) ZZZ and their uses” (priority 1993, dated 1995).
Square brackets hold non-standard residues; d marks the D form. Peptide text beside a SMILES is read from it. * marks the point of attachment. Phe(4-NO2) = N[C@@H](Cc1ccc([N+](=O)[O-])cc1)C(=O)O; Met(O2) = CS(=O)(=O)CC[C@H](N)C(=O)O; Fmoc = O=C(OCC1c2ccccc2-c2ccccc21)*; Orn = NCCC[C@H](N)C(=O)O; Thz = O=C(O)[C@@H]1CSCN1; Nva = CCC[C@H](N)C(=O)O; Abu = CC[C@H](N)C(=O)O; Aib = CC(C)(N)C(=O)O; GABA = NCCCC(=O)O; βAla = NCCC(=O)O

System: Human red blood cells (RBCs)
Assay: Hemolytic activity
Type: cell-based
Experimental: Each assay was carried out in 96-well culture tissue plates. Four wells per plate contain 125 μl of a non-peptide positive control (1% Triton in de-ionized water), and four wells per plate contain 125 μl of a control blank, phosphate buffered saline (PBS). The hemolytic peptide melittin was used as comparative control. The controls served to detect possible contamination and to calculate the percent hemolysis of each peptide. Human red blood cells (RBCs) were washed with PBS and centrifuged to separate them from the serum. The cells were then resuspended in PBS to a final suspension of 0.5% RBC. 125 μl of this suspension was added to the peptides and controls solution. The release of hemoglobin resulting from the cell lysis was determined by measuring the OD at 414 nm of 100 μl of the supernatant.

SMILES	HD50 (concentration necessary to lyse 50% of the cells) (Tables 18-21) [µg/mL]	HD50 (concentration necessary to lyse 50% of the cells) (Table 20, lower part) [μg/m]
CSCC[C@H](NC(=O)[C@H](CCCCN)NC(=O)[C@H](Cc1c[nH]c2ccccc12)NC(=O)[C@H](CCCCN)NC(=O)OCC1c2ccccc2-c2ccccc21)C(N)=O [(KFmoc)WKM-NH2] (Fmoc-KWKM-NH2)	102	
CC(C)[C@H](NC(=O)[C@H](CCCCN)NC(=O)[C@H](Cc1c[nH]c2ccccc12)NC(=O)[C@H](CCCCN)NC(=O)OCC1c2ccccc2-c2ccccc21)C(N)=O [(KFmoc)WKV-NH2] (Fmoc-KWKV-NH2)	137	
CC[C@H](NC(=O)[C@H](NC(=O)[C@@H](CS)NC(=O)[C@H](CCCCN)NC(=O)OCC1c2ccccc2-c2ccccc21)[C@H](C)CC)C(N)=O [(KFmoc)ci(aABA)-NH2] (Fmoc-K[dC][dI][Abu]-NH2)	29	
CC[C@@H](C)[C@@H](NC(=O)[C@@H](CS)NC(=O)[C@H](CCCCN)NC(=O)OCC1c2ccccc2-c2ccccc21)C(=O)N[C@@H](Cc1ccc([N+](=O)[O-])cc1)C(N)=O [(KFmoc)ci(NO2 F)-NH2] (Fmoc-K[dC][dI][Phe(4-NO2)]-NH2)	363	
C[C@@H](O)[C@H](NC(=O)[C@H](Cc1ccc(O)cc1)NC(=O)[C@H](Cc1c[nH]c2ccccc12)NC(=O)[C@H](CCCCN)NC(=O)OCC1c2ccccc2-c2ccccc21)C(N)=O [(KFmoc)WYT-NH2] (Fmoc-KWYT-NH2)	53	
CC[C@@H](C)[C@@H](NC(=O)[C@@H](CS)NC(=O)[C@H](CCCCN)NC(=O)OCC1c2ccccc2-c2ccccc21)C(=O)NCCC(N)=O [(KFmoc)ci(Bala)-NH2] (Fmoc-K[dC][dI][βAla]-NH2)	37	
NCCCC[C@H](NC(=O)OCC1c2ccccc2-c2ccccc21)C(=O)N[C@@H](Cc1c[nH]c2ccccc12)C(=O)N[C@@H](CCCCN)C(=O)N1CSC[C@H]1C(N)=O [(KFmoc)WK(Thiopro)-NH2] (Fmoc-KWK[Thz]-NH2)	108	
CS(=O)(=O)CC[C@H](NC(=O)[C@@H](Cc1ccccc1)NC(=O)[C@H](Cc1c[nH]c2ccccc12)NC(=O)[C@H](CCCCN)NC(=O)OCC1c2ccccc2-c2ccccc21)C(N)=O [(KFmoc)Wf(MetO2)-NH2] (Fmoc-KW[dF][Met(O2)]-NH2)		44
CC[C@H](C)[C@H](NC(=O)[C@@H](Cc1ccccc1)NC(=O)[C@H](Cc1c[nH]c2ccccc12)NC(=O)[C@H](CCCCN)NC(=O)OCC1c2ccccc2-c2ccccc21)C(N)=O [(KFmoc)WfI-NH2] (Fmoc-KW[dF]I-NH2)	208	
N=C(N)NCCC[C@H](NC(=O)[C@H](CCCCN)NC(=O)[C@H](Cc1c[nH]c2ccccc12)NC(=O)[C@H](CCCCN)NC(=O)OCC1c2ccccc2-c2ccccc21)C(N)=O [(KFmoc)WKR-NH2] (Fmoc-KWKR-NH2)	387	
NCCCC[C@H](NC(=O)OCC1c2ccccc2-c2ccccc21)C(=O)N[C@@H](Cc1c[nH]c2ccccc12)C(=O)N[C@H](Cc1ccccc1)C(=O)N[C@H](Cc1c[nH]c2ccccc12)C(N)=O [(KFmoc)Wfw-NH2] (Fmoc-KW[dF][dW]-NH2)	36	
CCC[C@H](NC(=O)[C@H](CCCCN)NC(=O)[C@H](Cc1c[nH]c2ccccc12)NC(=O)[C@H](CCCCN)NC(=O)OCC1c2ccccc2-c2ccccc21)C(N)=O [(KFmoc)WK(Nve)-NH2] (Fmoc-KWK[Nva]-NH2)	98	
NCCCC[C@H](NC(=O)OCC1c2ccccc2-c2ccccc21)C(=O)N[C@@H](Cc1c[nH]c2ccccc12)C(=O)N[C@@H](Cc1ccc(O)cc1)C(=O)N[C@@H](CCCN)C(N)=O [(KFmoc)WY(Orn)-NH2] (Fmoc-KWY[Orn]-NH2)	62	
NCCCC[C@H](NC(=O)OCC1c2ccccc2-c2ccccc21)C(=O)N[C@@H](Cc1c[nH]c2ccccc12)C(=O)N[C@@H](Cc1ccc(O)cc1)C(=O)N[C@@H](Cc1c[nH]cn1)C(N)=O [(KFmoc)WYH-NH2] (Fmoc-KWYH-NH2)	139	
NCCCC[C@H](NC(=O)OCC1c2ccccc2-c2ccccc21)C(=O)N[C@@H](Cc1c[nH]c2ccccc12)C(=O)N[C@@H](CCCCN)C(=O)N[C@@H](CO)C(N)=O [(KFmoc)WKS-NH2] (Fmoc-KWKS-NH2)	206	
CC[C@@H](C)[C@@H](NC(=O)[C@@H](CS)NC(=O)[C@H](CCCCN)NC(=O)OCC1c2ccccc2-c2ccccc21)C(=O)NC(C)(C)C(N)=O [(KFmoc)ci(aAIB)-NH2] (Fmoc-K[dC][dI][Aib]-NH2)	28	
NCCCC[C@H](NC(=O)OCC1c2ccccc2-c2ccccc21)C(=O)N[C@@H](Cc1c[nH]c2ccccc12)C(=O)N[C@@H](CCCCN)C(=O)N[C@@H](Cc1c[nH]cn1)C(N)=O [(KFmoc)WKH-NH2] (Fmoc-KWKH-NH2)	312	

SMILES	HD50 (concentration necessary to lyse 50% of the cells) (Tables 18-21) [µg/mL]	HD50 (concentration necessary to lyse 50% of the cells) (Table 20, lower part) [μg/m]
NCCCC[C@H](NC(=O)[C@H](CCCCN)NC(=O)[C@H](Cc1c[nH]c2ccccc12)NC(=O)[C@H](CCCCN)NC(=O)OCC1c2ccccc2-c2ccccc21)C(N)=O [(KFmoc)WKK-NH2] (Fmoc-KWKK-NH2)	469	
CC[C@@H](C)[C@@H](NC(=O)[C@@H](CS)NC(=O)[C@H](CCCCN)NC(=O)OCC1c2ccccc2-c2ccccc21)C(=O)NCCCC(N)=O [(KFmoc)ci(gABA)-NH2] (Fmoc-K[dC][dI][GABA]-NH2)	54	
NCCCC[C@H](NC(=O)OCC1c2ccccc2-c2ccccc21)C(=O)N[C@@H](Cc1c[nH]c2ccccc12)C(=O)N[C@@H](CCCCN)C(=O)N[C@@H](CS)C(N)=O [(KFmoc)WKC-NH2] (Fmoc-KWKC-NH2)	43	
NCCCC[C@H](NC(=O)OCC1c2ccccc2-c2ccccc21)C(=O)N[C@@H](Cc1c[nH]c2ccccc12)C(=O)N[C@H](Cc1ccccc1)C(=O)N[C@@H](Cc1ccc(O)cc1)C(N)=O [(KFmoc)WfY-NH2] (Fmoc-KW[dF]Y-NH2)	42	
N=C(N)NCCC[C@H](NC(=O)[C@H](Cc1ccc(O)cc1)NC(=O)[C@H](Cc1c[nH]c2ccccc12)NC(=O)[C@H](CCCCN)NC(=O)OCC1c2ccccc2-c2ccccc21)C(N)=O [(KFmoc)WYR-NH2] (Fmoc-KWYR-NH2)	45	
NCCCC[C@H](NC(=O)OCC1c2ccccc2-c2ccccc21)C(=O)N[C@@H](Cc1c[nH]c2ccccc12)C(=O)N[C@@H](CCCCN)C(=O)N[C@@H](Cc1c[nH]c2ccccc12)C(N)=O [(KFmoc)WKW-NH2] (Fmoc-KWKW-NH2)	37	
N=C(N)NCCC[C@H](NC(=O)[C@@H](Cc1ccccc1)NC(=O)[C@H](Cc1c[nH]c2ccccc12)NC(=O)[C@H](CCCCN)NC(=O)OCC1c2ccccc2-c2ccccc21)C(N)=O [(KFmoc)WfR-NH2] (Fmoc-KW[dF]R-NH2)	122	
NCCCC[C@H](NC(=O)OCC1c2ccccc2-c2ccccc21)C(=O)N[C@@H](Cc1c[nH]c2ccccc12)C(=O)N[C@@H](Cc1ccc(O)cc1)C(=O)N[C@@H](CS)C(N)=O [(KFmoc)WYC-NH2] (Fmoc-KWYC-NH2)	267	
CC(C)(NC(=O)[C@H](CCCCN)NC(=O)[C@H](Cc1c[nH]c2ccccc12)NC(=O)[C@H](CCCCN)NC(=O)OCC1c2ccccc2-c2ccccc21)C(N)=O [(KFmoc)WK(aAIB)-NH2] (Fmoc-KWK[Aib]-NH2)	447	
NCCCC[C@H](NC(=O)OCC1c2ccccc2-c2ccccc21)C(=O)N[C@@H](Cc1c[nH]c2ccccc12)C(=O)N[C@@H](CCCCN)C(=O)N[C@@H](Cc1ccc(O)cc1)C(N)=O [(KFmoc)WKY-NH2] (Fmoc-KWKY-NH2)	156	
NCCCC[C@H](NC(=O)OCC1c2ccccc2-c2ccccc21)C(=O)N[C@@H](Cc1c[nH]c2ccccc12)C(=O)N[C@@H](Cc1ccc(O)cc1)C(=O)N1CCC[C@H]1C(N)=O [(KFmoc)WYP-NH2] (Fmoc-KWYP-NH2)	97	
NCCCC[C@H](NC(=O)OCC1c2ccccc2-c2ccccc21)C(=O)N[C@@H](Cc1c[nH]c2ccccc12)C(=O)N[C@H](Cc1ccccc1)C(=O)N1CSC[C@H]1C(N)=O [(KFmoc)Wf(Thiopro)-NH2] (Fmoc-KW[dF][Thz]-NH2)		45
CS(=O)(=O)CC[C@H](NC(=O)[C@H](CCCCN)NC(=O)[C@H](Cc1c[nH]c2ccccc12)NC(=O)[C@H](CCCCN)NC(=O)OCC1c2ccccc2-c2ccccc21)C(N)=O [(KFmoc)WK(MetO2)-NH2] (Fmoc-KWK[Met(O2)]-NH2)	437	
CC(C)C[C@H](NC(=O)[C@H](CCCCN)NC(=O)[C@H](Cc1c[nH]c2ccccc12)NC(=O)[C@H](CCCCN)NC(=O)OCC1c2ccccc2-c2ccccc21)C(N)=O [(KFmoc)WKL-NH2] (Fmoc-KWKL-NH2)	73	
CC[C@H](NC(=O)[C@H](CCCCN)NC(=O)[C@H](Cc1c[nH]c2ccccc12)NC(=O)[C@H](CCCCN)NC(=O)OCC1c2ccccc2-c2ccccc21)C(N)=O [(KFmoc)WK(aABA)-NH2] (Fmoc-KWK[Abu]-NH2)	449	
NCCCC[C@H](NC(=O)OCC1c2ccccc2-c2ccccc21)C(=O)N[C@@H](Cc1c[nH]c2ccccc12)C(=O)N[C@@H](CCCCN)C(=O)N[C@@H](CC(N)=O)C(N)=O [(KFmoc)WKN-NH2] (Fmoc-KWKN-NH2)	204	
NCCCC[C@H](NC(=O)OCC1c2ccccc2-c2ccccc21)C(=O)N[C@@H](Cc1c[nH]c2ccccc12)C(=O)N[C@@H](CCCCN)C(=O)N[C@@H](Cc1ccccc1)C(N)=O [(KFmoc)WKF-NH2] (Fmoc-KWKF-NH2)	105	
